Tests used:
plasma protein = assay: Plasma protein binding (rapid equilibrium dialysis); format: in vitro ADME, mice
[1] = test system: mechanotransduction channel activity of mouse cochlear HCs; assay: FM1-43 uptake in mouse cochlear HCs; format: in vivo; conditions: mice, 24, 48 and 72 h after injection
Procedure: The styryl pyridinium dye FM1-43 provides an optical measure of mechanotransduction channel function and, therefore, was used as a proxy for the viability of the neuromast cells treated with QX-294 or QX-301, as well as indirect information on the functional capability of newly formed HCs. FM1-43FX (Thermo Scientific, Waltham, MA, USA) uptake experiments in zebrafish were performed as previously described. Zebrafish were incubated with E3 alone (control) or in the presence of Qx-294 or Qx-301, both at 300 μM, for 7 h and then immediately exposed to 3 μM FM1-43FX for 40 s. Alternatively, animals were transferred to a fresh E3 solution for 1 h and then exposed to the dye. For mouse treatment, 24, 48, and 72 h after animals were injected with […] Qx-294 or Qx-301, their cochleae were dissected, transiently exposed to FM1-43 FX dye (1 mg/mL) for 45 s, and then fixed in 4% PFA. All animals were P28 at completion of the treatment. Fluorescence incorporated was quantified according to [19] using ImageJ (ImageJ2 1.54r).

Plasma protein binding (plasma protein)	SMILES	FM1-43 fluorescence intensity incorporated by the cochleae vs control [1]
highly protein-bound	c1ccc2nc(N3CCOCC3)cnc2c1 [Qx-294, 2-(morpholine)-quinoxaline]	did not show any significant differences from the control samples
	c1ccc2nc(N3CCCC3)cnc2c1 [Qx-301, 2-(pyrrolidine)-quinoxaline]	did not show any significant differences from the control samples
